According to patent publication US5559156A, “Method for treating animals infected with Babesia spp” (Glaxo Wellcome, Inc., priority 1994, dated 1996):
Values belong to the compound of their own block, whether it stands above or below them.

Tests used:
Leishmania donovani = assay: Activity against Leishmania donovani in vitro in mouse peritoneal macrophages; format: cell-based, Leishmania donovani (in macrophages of CDl mice)
Protocol: Leishmania donovani was routinely maintained in male golden hamsters (Wright'strain). Amastigotes were isolated from the spleen of infected hamsters 6-8 weeks after infection for use in experimental studies.
The procedure of Neal and Croft (Journal of Antimicrobial Chemotherapy 14, 463-475 (1984) was followed. Mouse peritoneal macrophages were isolated from the peritoneal cavity of outbred CDl mice. Macrophages were cultured in Labtek eight-well tissue chamber slides in RPMI 1640 medium plus 10% heat-inactivated foetal calf serum at 37° in a 5% CO2 -air mixture. Cultures were infected with freshly isolated amastigotes 24 hours before the start of drug treatment. Finally, infected macrophages where incubated in the presence of medium containing the test compound for 7 days, medium being replaced on days 1, 3 and 5 after infection.
The compound was tested in a five-fold dilution series from 50 μM with four replicates at each dilution. Fine suspensions of the compound for testing were prepared by dilution with medium of solutions initially prepared in echanol.
The proportion of infected macrophages in Giemsa stained preparations was determined after 7 days exposure to the test compound. The ED50 value was calculated by a sigmoidal analysis.

L. donovani = assay: Activity against L. donovani in vivo in Balb/c mice; set-up: species or system L. donovani (in male Balb/c mice); settings: for % Suppression of Liver Amastigotes: 0.25% cellacol
Protocol: Male Balb/c mice were infected intravenously with 5×10^6 L. donovani amastigotes obtained as in Example 5. One week after infection mice were randomly divided into groups of 5 and treatment with test compound commenced, using cellacol as the vehicle for the test compound. Four days after the completion of treatment all mice were sacrificed. Their livers were removed, weighted and impression smears were fixed with methanol and […] stained. The activity of the compound was determined from the number of amastigotes/500 liver cells in treated and untreated groups.

B. divergens = assay: Activity against B. divergens infection in gerbils, single oral dose at the time of infection; format: in vivo; settings: for % Activity / Days to 0.1% Parasitaemia / Days to Redwater / Maximum % Parasitaemia / % Control % Parasitaemia (day 3): single dose
Protocol: Gerbils, in groups of 5, were injected intraperitoneally with gerbil erythrocytes infected with 10^7 B divergens. At the time of infection, the gerbils were given, per os by stomach tube, a single dose of test compound, diluted in methyl cellulose. The gerbils were assessed for the time to reach 0.1% parasitaemia and the time to reach haemoglobinurea (redwater). The maximum parasitaemia reached and suppression of parasitaemia relative to controls were assessed and the activity of the test compound calculated.

B-divergens [1] = assay: Activity against B-divergens in vitro in human red cells; format: cell-based; settings: for IC50: read-out: IC50 Human
Protocol: (§1) Activity against Babesiosis in vitro
(§2) The activity of the test compound against B-divergens in vitro, both in bovine and human red cells was measured and compared with the activities of standard anti-babesials.

B-divergens [2] = assay: Activity against B-divergens in vitro in bovine red cells; format: cell-based; settings: Bos taurus, read-out: IC50 Bovine
Protocol: as §1, §2

B-divergens [3] = settings: two patients; cited from earlier work

SMILES: O=C1C(O)=C(C2CCC(c3ccc(Cl)cc3)CC2)C(=O)c2ccccc21 (centres unmarked) [2-[4-(4-chlorophenyl)cyclohexyl]-3-hydroxy-1,4-napthoquinone]
% Activity (B. divergens; 0.1 mg/kg per os): 0.0%
Days to 0.1% Parasitaemia (B. divergens; 0.1 mg/kg per os): 1.0 ± 0.0 days
Days to Redwater (B. divergens; 0.1 mg/kg per os): 3.0 ± 0.0 days
Maximum % Parasitaemia (B. divergens; 0.1 mg/kg per os): > 40%
% Control % Parasitaemia (day 3) (B. divergens; 0.1 mg/kg per os): 138.7 ± 18.6%
% Activity (B. divergens; 1.0 mg/kg per os): 86.1%
Days to 0.1% Parasitaemia (B. divergens; 1.0 mg/kg per os): 2.5 ± 0.57 days
Days to Redwater (B. divergens; 1.0 mg/kg per os): 4.0 ± 0.82 days
Maximum % Parasitaemia (B. divergens; 1.0 mg/kg per os): > 40%
% Control % Parasitaemia (day 3) (B. divergens; 1.0 mg/kg per os): 13.9 ± 4.3%
% Activity (B. divergens; 10.0 mg/kg per os): 100%
Days to 0.1% Parasitaemia (B. divergens; 10.0 mg/kg per os): 5.6 ± 2.5 days
Days to Redwater (B. divergens; 10.0 mg/kg per os): 9.2 ± 1.8 days
Maximum % Parasitaemia (B. divergens; 10.0 mg/kg per os): 4.02%
% Control % Parasitaemia (day 3) (B. divergens; 10.0 mg/kg per os): 0.0%
% Activity (B. divergens; 50.0 mg/kg per os): 100%
Days to 0.1% Parasitaemia (B. divergens; 50.0 mg/kg per os): > 10.0 days
Days to Redwater (B. divergens; 50.0 mg/kg per os): > 10.0 days
Maximum % Parasitaemia (B. divergens; 50.0 mg/kg per os): 0.0%
% Control % Parasitaemia (day 3) (B. divergens; 50.0 mg/kg per os): 0.0%
activity in vivo against B. divergens in gerbils (B. divergens; per os): active in vivo against B. divergens in gerbils

SMILES: CC[n+]1c(-c2ccccc2)c2cc(N)ccc2c2ccc(N)cc21 [Ethidium bromide]
IC50 (B-divergens [1]; Homo sapiens): 69 nM
IC50 (B-divergens [2]): 47 nM

SMILES: N=C(N)c1ccc(OCCCCCOc2ccc(C(=N)N)cc2)cc1 [Pentamidine isethionate]
IC50 (B-divergens [1]; in vitro, human red cells): 456 nM
IC50 (B-divergens [2]; in vitro, bovine red cells): 360 nM

Continued, in another order:

EC50 (Leishmania donovani; Leishmania donovani, Peritoneal macrophage, 168 h, 7 days exposure, sigmoidal analysis, P95% limits in brackets, read-out: ED50 [P95% limits]): 29500 nM
SMILES: O=C1C(O)=C(C2CCC(c3ccc(Cl)cc3)CC2)C(=O)c2ccccc21 (mixture of isomers) [2-[4-(4-chlorophenyl)cyclohexyl]-3-hydroxy-1,4-naphthoquinone]
activity against L. donovani in vitro (Leishmania donovani; 50 μM): active at 50 μM concentration against L. donovani
inhibition at 0.4 µM (Leishmania donovani; Leishmania donovani, Peritoneal macrophage, 168 h, 0.4 μM, 7 days): 6%
inhibition at 2 µM (Leishmania donovani; Leishmania donovani, Peritoneal macrophage, 168 h, 2 μM, 7 days): 0%
inhibition at 10 µM (Leishmania donovani; Leishmania donovani, Peritoneal macrophage, 168 h, 10 μM, 7 days): 14.7%
inhibition at 50 µM (Leishmania donovani; Leishmania donovani, Peritoneal macrophage, 168 h, 50 μM, 7 days): 64.8%
% Suppression of Liver Amastigotes (L. donovani; 100 mg/kg/day × 5, Oral): 0%
% Suppression of Liver Amastigotes (L. donovani; 100 mg/kg/day × 5, Subcutaneous): 30.5%
activity against L. donovani in vivo (L. donovani; subcutaneous): active when administered subcutaneously

IC50 (B-divergens [1]; in vitro, human red cells): 517 nM
IC50 (B-divergens [2]; in vitro, bovine red cells): 460 nM
SMILES: N=C(N)c1cccc(NC(=O)Nc2cccc(C(=N)N)c2)c1 [Amicarbalide isethionate]

IC50 (B-divergens [1]; in vitro, human red cells): 310 nM
IC50 (B-divergens [2]; in vitro, bovine red cells): 100 nM
SMILES: O=C(Nc1cccc(C2=NCCN2)c1)Nc1cccc(C2=NCCN2)c1 [Imizol]
use in patients to cure B-divergens (B-divergens [3]): used successfully in two patients to cure B-divergens

IC50 (B-divergens [1]; in vitro, human red cells): 96 nM
IC50 (B-divergens [2]; in vitro, bovine red cells): 34 nM
SMILES: C[n+]1cccc2cc(NC(=O)Nc3ccc4c(ccc[n+]4C)c3)ccc21 [Quinuronium sulphate]

IC50 (B-divergens [1]; in vitro, human red cells): 36.3 nM
IC50 (B-divergens [2]; in vitro, bovine red cells): 17.9 nM
SMILES: O=C1C(O)=C([C@H]2CC[C@H](c3ccc(Cl)cc3)CC2)C(=O)c2ccccc21 [Test compound, 2-[trans-4-(4-chlorophenyl)cyclohexyl]-3-hydroxy-1,4-naphthoquinone]
effectiveness in vitro compared with Imizol (B-divergens [1]; in vitro, Table 1 covers bovine and human red cells): more effective than Imizol in vitro
